Experiment [1] has as its system Cdk1 phosphorylated on tyrosine 15. Description: High-content imaging of pCdk1 Y15 by immunofluorescence in ACHN cells. The conditions noted are these: Homo sapiens, high-content imaging (IF), 4 h, 7 to 5000 nM, read-out: CDK1 Tyr15 Phosphorylation EC50 (IC50). The format is cell-based. In a few lines:
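ACHN cells were treated with compounds at 7–5000 nM for 4 h, then fixed, permeabilised and immunostained for pCDK1 Y15, with DAPI as nuclear counterstain. Automated imaging gave the percentage of cells with nuclear pCDK1 Y15 positivity relative to DMSO control. EC50 values came from dose-response curves.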

Another experiment concerns ACHN cells. Description: Cell Titer Glo viability assay in ACHN cells. The format is cell-based. The conditions noted are these: Homo sapiens, 144 h, 0.17 to 10,000 nM. On the procedure:
ACHN renal cell carcinoma cell line (ATCC) was cultured in Minimum Essential Medium Eagle supplemented with 10% fetal calf serum (Sigma), 1% Penicillin-Streptomycin and 10 mM HEPES buffer (HyClone). Cell cultures were kept in a humidified incubator at 37° C. and 5% CO2. Cells were routinely tested for Mycoplasma contamination.
ACHN cells were seeded at a density of 400 cells per well in tissue culture treated 384 well plates (Corning Costar). After overnight incubation, cells were treated with drugs at concentrations ranging from 0.17 to 10,000 nM. Viability compared to untreated control was assessed at 144 h using Cell Titer Glo assay 2.0 (Promega).
A general note: Cellular ATP, detected with luciferase, serves as a proxy for viable cell number.

The target of experiment [2] is T1, recombinant human Wee1A kinase (Homo sapiens, UniProt P30291).
T1 construct: full length Wee1A kinase was expressed by baculovirus in insect cells; purchased Invitrogen PV3817; host or cells: insect cells (baculovirus)
As to the kind of experiment: LanthaScreen Europium (Eu) Kinase Binding Assay, Wee1A kinase (TR-FRET tracer displacement). Conditions: 30 nM tracer 178, 5 nM Wee1A kinase, 60 minutes at room temperature.

Some results are limits rather than exact numbers.

The record followed here is patent US20260207618A1, “PYRIMIDINE CARBOXAMIDE COMPOUNDS” (Acrivon Therapeutics, Inc., priority 2022, published 2026).

T1 sequence (P30291 whole entry): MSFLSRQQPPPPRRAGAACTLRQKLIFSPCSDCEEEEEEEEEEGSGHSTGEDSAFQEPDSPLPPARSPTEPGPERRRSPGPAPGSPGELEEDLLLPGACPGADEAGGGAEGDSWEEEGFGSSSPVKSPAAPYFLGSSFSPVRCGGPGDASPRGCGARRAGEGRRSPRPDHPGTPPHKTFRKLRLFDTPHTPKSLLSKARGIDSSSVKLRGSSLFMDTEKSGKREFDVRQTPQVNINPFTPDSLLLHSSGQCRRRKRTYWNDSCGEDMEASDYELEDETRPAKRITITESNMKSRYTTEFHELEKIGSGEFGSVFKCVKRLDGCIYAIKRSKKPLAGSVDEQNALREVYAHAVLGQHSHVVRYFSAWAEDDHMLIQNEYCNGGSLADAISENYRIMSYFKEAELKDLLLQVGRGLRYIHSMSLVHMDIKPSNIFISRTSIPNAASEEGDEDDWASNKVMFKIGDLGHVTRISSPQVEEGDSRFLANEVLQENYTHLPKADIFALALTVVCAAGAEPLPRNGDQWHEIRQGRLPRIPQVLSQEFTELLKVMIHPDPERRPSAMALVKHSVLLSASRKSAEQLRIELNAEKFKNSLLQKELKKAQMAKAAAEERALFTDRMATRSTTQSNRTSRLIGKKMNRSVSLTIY

As usually defined, the EC50 is the concentration at which the effect is half-maximal. Consider `COc1nc(Nc2ccc(O[C@@H]3CCNC3)c(C)c2)ncc1C(=O)Nc1c(Cl)cccc1Br` [Compound 210], for which the EC50 in experiment [1] lay within 0.1 to 0.5 µM; with ACHN cells, 0.25 to 1 µM.
A word on the IC50: it is the concentration at which inhibition is half-maximal. For `COc1nc(Nc2ccc(C3CCN(C)CC3)c(C)c2)ncc1C(=O)Nc1c(F)ccc(F)c1Cl` [Compound 128, N-(2-chloro-3,6-difluorophenyl)-4-methoxy-2-((3-methyl-4-(1-methylpiperidin-4-yl)phenyl)amino)pyrimidine-5-carboxamide], the IC50 in experiment [2] is not above 0.01 µM. Moreover, the EC50 in experiment [1] lay within 0.1 to 0.5 µM.
Take `COc1nc(Nc2cnn(C)c2)ncc1C(=O)Nc1c(C)ccc(O)c1C` [Compound 224, N-(3-hydroxy-2,6-xylyl)-4-methoxy-2-(1-methyl-4-pyrazolylamino)-5-pyrimidinecarboxamide]: the IC50 in experiment [2] was not above 0.01 µM. In addition, the EC50 in experiment [1] was more than 1 µM.
Regarding `COc1nc(Nc2ccc(C3CCN(C)CC3)c(C)c2)ncc1C(=O)Nc1c(F)cccc1Cl` [Compound 113, N-(2-chloro-6-fluorophenyl)-4-methoxy-2-((3-methyl-4-(1-methylpiperidin-4-yl)phenyl)amino)pyrimidine-5-carboxamide], the IC50 in experiment [2] was not above 0.01 µM. The EC50 in experiment [1] was 0.1 to 0.5 µM.
On the same counts, the results for `COc1nc(Nc2ccc([C@H]3CCCN(C)C3)c(C)c2)ncc1C(=O)Nc1c(Cl)cccc1Br` [Compound 196, (R)—N-(2-bromo-6-chlorophenyl)-4-methoxy-2-((3-methyl-4-(1-methylpiperidin-3-yl)phenyl)amino)pyrimidine-5-carboxamide] are not above 0.01 µM and 0.1 to 0.5 µM.
On the same counts, the results for `COc1nc(Nc2ccc(OC3CCN(C)CC3)c(C)c2)ncc1C(=O)Nc1c(Cl)ccc(O)c1C` [Compound 152, N-(6-chloro-3-hydroxy-2-methylphenyl)-4-methoxy-2-((3-methyl-4-((1-methylpiperidin-4-yl)oxy)phenyl)amino)pyrimidine-5-carboxamide] are not above 0.01 µM and 0.1 to 0.5 µM.
On to `CCOc1nc(Nc2cnn(CCCN(C)C)c2)ncc1C(=O)Nc1c(Cl)cccc1Br` [Compound 200, N-(2-bromo-6-chlorophenyl)-2-{1-[3-(dimethylamino)propyl]-4-pyrazolylamino}-4-ethoxy-5-pyrimidinecarboxamide], for which the half-maximal effective concentration (EC50) in experiment [1] is 0.1 to 0.5 µM; in the experiment with ACHN cells, 0.25 to 1 µM.
Consider `COc1nc(Nc2ccc(OCCN(C)C)c(C)c2)ncc1C(=O)Nc1c(Cl)ccc(O)c1C` [Compound 149, N-(6-chloro-3-hydroxy-2-methylphenyl)-2-((4-(2-(dimethylamino)ethoxy)-3-methylphenyl)amino)-4-methoxypyrimidine-5-carboxamide], for which the IC50 in experiment [2] was not above 0.01 µM. In experiment [1], the EC50 fell in the range of 0.1 to 0.5 µM.
For `COc1nc(Nc2ccc(C3CCN(C)CC3)c(C)c2)ncc1C(=O)Nc1c(C)cccc1C(F)(F)F` [Compound 120, 4-methoxy-2-((3-methyl-4-(1-methylpiperidin-4-yl)phenyl)amino)-N-(2-methyl-6-(trifluoromethyl)phenyl)pyrimidine-5-carboxamide] the same measures were not above 0.01 µM and more than 1 µM.
For `COc1nc(Nc2cnn([C@H]3CCCNCC3)c2)ncc1C(=O)Nc1c(Cl)cccc1Cl` (single isomer, unassigned) [Compound 187] the same measures were not above 0.01 µM and more than 1 µM.
For the compound `COc1nc(Nc2ccc(OCCCN3CCOCC3)c(C)c2)ncc1C(=O)Nc1c(Cl)cccc1Cl` [Compound 148, N-(2,6-dichlorophenyl)-4-methoxy-2-((3-methyl-4-(3-morpholinopropoxy)phenyl)amino)pyrimidine-5-carboxamide], in experiment [2], the IC50 was not above 0.01 µM. For the same compound, in experiment [1], the EC50 is more than 1 µM.
For `COc1nc(Nc2ccc(O[C@@H]3CCN(C)C3)c(C)c2)ncc1C(=O)Nc1c(Cl)ccc(O)c1C` [Compound 153, (R)—N-(6-chloro-3-hydroxy-2-methylphenyl)-4-methoxy-2-((3-methyl-4-((1-methylpyrrolidin-3-yl)oxy)phenyl)amino)pyrimidine-5-carboxamide] the same measures were not above 0.01 µM and not above 0.1 µM.
Consider `COc1nc(Nc2ccc(N3CCNCCC3=O)c(C)c2)ncc1C(=O)Nc1c(Cl)cccc1Cl` [Compound 167], for which the IC50 in experiment [2] was not above 0.01 µM. For the same compound, the EC50 in experiment [1] was 0.1 to 0.5 µM.
For `COc1nc(Nc2cnn([C@@H]3CCCN(C)CC3)c2)ncc1C(=O)Nc1c(Cl)cccc1Cl` (single isomer, unassigned) [Compound 188] the same measures were not above 0.01 µM and 0.1 to 0.5 µM.
For `CCOc1nc(Nc2ccc(OC3CCN(C)CC3)c(C)c2)ncc1C(=O)Nc1c(Cl)cccc1Br` [Compound 222] the same measures were not above 0.01 µM and 0.1 to 0.5 µM.
For `COc1nc(Nc2ccc(C3CCN(C)CC3)c(C)c2)ncc1C(=O)Nc1c(Cl)ccc(F)c1F` [Compound 125, N-(6-chloro-2,3-difluorophenyl)-4-methoxy-2-((3-methyl-4-(1-methylpiperidin-4-yl)phenyl)amino)pyrimidine-5-carboxamide] the same measures were not above 0.01 µM and more than 1 µM.
`COc1nc(Nc2ccc(C3CCN(C)CC3)c(C)c2)ncc1C(=O)Nc1ccccc1` [Compound 101, 4-methoxy-2-((3-methyl-4-(1-methylpiperidin-4-yl)phenyl)amino)-N-phenylpyrimidine-5-carboxamide]: in experiment [2], the IC50 lay within 0.01 to 0.1 µM. In experiment [1], the EC50 was more than 1 µM.
As to `COc1nc(Nc2ccc(C3CCN(C)CC3)c(C)c2)ncc1C(=O)Nc1ccccc1C(F)(F)F` [Compound 114, 4-methoxy-2-((3-methyl-4-(1-methylpiperidin-4-yl)phenyl)amino)-N-(2-(trifluoromethyl)phenyl)pyrimidine-5-carboxamide], the IC50 in experiment [2] is not above 0.01 µM. The EC50 in experiment [1] was more than 1 µM.
For `COc1nc(Nc2ccc(C3CCN(C)CC3)c(C)c2)ncc1C(=O)Nc1c(Cl)cc(F)cc1Cl` [Compound 121, N-(2,6-dichloro-4-fluorophenyl)-4-methoxy-2-((3-methyl-4-(1-methylpiperidin-4-yl)phenyl)amino)pyrimidine-5-carboxamide] the same measures were not above 0.01 µM and 0.1 to 0.5 µM.
`COc1nc(Nc2ccc(C3CCN(C)CC3)c(C)c2)ncc1C(=O)Nc1c(Cl)cccc1C#N` [Compound 137, N-(2-chloro-6-cyanophenyl)-4-methoxy-2-((3-methyl-4-(1-methylpiperidin-4-yl)phenyl)amino)pyrimidine-5-carboxamide]: the IC50 in experiment [2] is 0.01 to 0.1 µM. The EC50 in experiment [1] was more than 1 µM.
On the same counts, the results for `CCOc1nc(Nc2ccc(OC3CCNCC3)c(C)c2)ncc1C(=O)Nc1c(Cl)cccc1Br` [Compound 221] are not above 0.01 µM and 0.1 to 0.5 µM.
On the same counts, the results for `COc1nc(Nc2cnn([C@@H]3CCCNCC3)c2)ncc1C(=O)Nc1c(Cl)cccc1Cl` (single isomer, unassigned) [Compound 186] are not above 0.01 µM and more than 1 µM.
For `CCOc1cc(Nc2ncc(C(=O)Nc3c(Cl)cccc3Br)c(OC)n2)ccc1C1CCN(C)CC1` [Compound 217, N-(2-bromo-6-chlorophenyl)-2-((3-ethoxy-4-(1-methylpiperidin-4-yl)phenyl)amino)-4-methoxypyrimidine-5-carboxamide] the same measures were not above 0.01 µM and 0.1 to 0.5 µM.
Turning to `COc1nc(Nc2ccc(C3CCN(C)CC3)c(C#N)c2)ncc1C(=O)Nc1c(Cl)ccc(O)c1C` [Compound 157, N-(6-chloro-3-hydroxy-2-methylphenyl)-2-((3-cyano-4-(1-methylpiperidin-4-yl)phenyl)amino)-4-methoxypyrimidine-5-carboxamide], in experiment [2], the IC50 was in the range of 0.01 to 0.1 µM. Moreover, the EC50 in experiment [1] fell in the range of 0.1 to 0.5 µM.
`COc1nc(Nc2ccc(OCCN3CCOCC3)c(C)c2)ncc1C(=O)Nc1c(Cl)cccc1Cl` [Compound 144, N-(2,6-dichlorophenyl)-4-methoxy-2-((3-methyl-4-(2-morpholinoethoxy)phenyl)amino)pyrimidine-5-carboxamide]: the 50% inhibitory concentration (IC50) in experiment [2] is not above 0.01 µM. Also, the EC50 in experiment [1] is more than 1 µM.
On the same counts, the results for `COc1nc(Nc2ccc(OCCCN(C)C)c(C)c2)ncc1C(=O)Nc1c(Cl)cccc1Cl` [Compound 147, N-(2,6-dichlorophenyl)-2-((4-(3-(dimethylamino)propoxy)-3-methylphenyl)amino)-4-methoxypyrimidine-5-carboxamide] are not above 0.01 µM and more than 1 µM.
For `CCOc1nc(Nc2cnn([C@H](C)CNC)c2)ncc1C(=O)Nc1c(Cl)cccc1Br` [Compound 203, N-(2-bromo-6-chlorophenyl)-2-{1-[(R)-1-methyl-2-(methylamino)ethyl]-4-pyrazolylamino}-4-ethoxy-5-pyrimidinecarboxamide] the same measures were not above 0.01 µM and more than 1 µM.
On the same counts, the results for `Cc1cc(Nc2ncc(C(=O)Nc3c(Cl)cccc3Cl)c(OCC(F)(F)F)n2)ccc1C1CCN(C)CC1` [Compound 104, N-(2,6-dichlorophenyl)-2-{[3-methyl-4-(1-methylpiperidin-4-yl)phenyl]amino}-4-(2,2,2-trifluoroethoxy)pyrimidine-5-carboxamide] are not above 0.01 µM and 0.1 to 0.5 µM.
